Measured values as given in patent US9707233B2, “Heterocyclylamines as PI3K inhibitors” (Incyte Corporation, priority 2011, dated 2017).
pIC50: −log10 of the molar value. Structures can show the parent of a compound that is named as a salt.

Molecular target: PI3Kδ (p110δ/p85α) (Homo sapiens (Human), UniProt O00329)
Test: PI3Kδ scintillation proximity assay (Example A3)
Format: biochemical
Details: 20 μM ATP, 20 μM PIP2, 4 nM PI3Kδ; read-out: PI3Kδ SPA IC50
Method in brief: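 IC50 derived by fitting percent control activity against log inhibitor concentration. Radiolabelled product was measured by scintillation counting on WGA SPA beads after overnight shaking. The kinase reaction used 4 nM p110δ/p85α, 20 μM ATP (with [γ-33P]ATP) and 20 μM PIP2 at pH 6.7 and room temperature, with 0.5% DMSO final.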

Sequence of PI3Kδ (p110δ/p85α) (O00329 whole entry): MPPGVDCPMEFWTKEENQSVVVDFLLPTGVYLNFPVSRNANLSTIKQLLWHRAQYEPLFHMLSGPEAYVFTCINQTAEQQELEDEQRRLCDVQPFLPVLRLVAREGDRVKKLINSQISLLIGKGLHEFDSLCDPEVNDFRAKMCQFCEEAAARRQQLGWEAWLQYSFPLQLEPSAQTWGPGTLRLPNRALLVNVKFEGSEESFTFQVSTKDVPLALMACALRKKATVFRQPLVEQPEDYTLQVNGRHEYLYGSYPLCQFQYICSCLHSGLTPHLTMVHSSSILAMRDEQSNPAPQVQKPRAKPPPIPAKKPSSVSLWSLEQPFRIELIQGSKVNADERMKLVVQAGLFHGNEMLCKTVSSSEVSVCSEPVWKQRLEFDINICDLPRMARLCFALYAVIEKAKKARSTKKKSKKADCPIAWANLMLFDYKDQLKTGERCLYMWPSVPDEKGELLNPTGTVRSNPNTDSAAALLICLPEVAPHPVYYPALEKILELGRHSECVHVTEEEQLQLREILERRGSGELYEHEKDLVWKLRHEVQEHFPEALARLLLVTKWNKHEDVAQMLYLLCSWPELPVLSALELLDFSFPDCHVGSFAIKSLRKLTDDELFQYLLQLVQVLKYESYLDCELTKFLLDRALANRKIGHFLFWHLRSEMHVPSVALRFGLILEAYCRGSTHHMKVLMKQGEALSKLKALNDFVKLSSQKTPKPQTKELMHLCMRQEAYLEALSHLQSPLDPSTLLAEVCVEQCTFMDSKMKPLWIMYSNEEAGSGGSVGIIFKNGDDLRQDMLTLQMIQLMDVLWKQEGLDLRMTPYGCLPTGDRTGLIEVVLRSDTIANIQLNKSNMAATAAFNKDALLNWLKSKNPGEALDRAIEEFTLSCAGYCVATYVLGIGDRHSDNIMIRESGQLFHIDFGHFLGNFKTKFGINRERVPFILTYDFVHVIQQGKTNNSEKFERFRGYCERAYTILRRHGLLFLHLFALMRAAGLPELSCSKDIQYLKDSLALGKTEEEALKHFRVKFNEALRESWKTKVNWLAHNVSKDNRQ
Sequence of PI3Kδ (p110δ/p85α) (P27986 whole entry partner): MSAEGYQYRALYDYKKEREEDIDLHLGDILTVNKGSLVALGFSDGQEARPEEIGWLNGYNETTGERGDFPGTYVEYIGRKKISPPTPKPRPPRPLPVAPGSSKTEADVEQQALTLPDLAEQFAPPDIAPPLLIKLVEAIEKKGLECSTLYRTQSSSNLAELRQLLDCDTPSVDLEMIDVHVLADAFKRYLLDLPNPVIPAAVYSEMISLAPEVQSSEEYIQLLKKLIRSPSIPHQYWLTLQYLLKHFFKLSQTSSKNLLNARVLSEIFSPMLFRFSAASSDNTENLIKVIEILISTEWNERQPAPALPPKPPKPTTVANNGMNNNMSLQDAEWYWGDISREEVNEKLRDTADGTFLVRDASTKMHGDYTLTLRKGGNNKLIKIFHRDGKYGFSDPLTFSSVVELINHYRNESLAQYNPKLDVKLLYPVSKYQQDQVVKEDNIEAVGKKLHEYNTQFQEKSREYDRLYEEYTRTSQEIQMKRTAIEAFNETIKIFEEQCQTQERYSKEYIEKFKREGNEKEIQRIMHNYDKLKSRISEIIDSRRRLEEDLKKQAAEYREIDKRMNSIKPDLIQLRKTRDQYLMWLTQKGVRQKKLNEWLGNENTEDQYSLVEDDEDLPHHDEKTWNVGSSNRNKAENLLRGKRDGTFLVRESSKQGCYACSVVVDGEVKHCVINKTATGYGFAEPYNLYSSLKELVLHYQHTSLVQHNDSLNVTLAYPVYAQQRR

Compound | pIC50
CCOC(=O)N1CC(c2c(C#N)c(Cl)cc(C(C)n3nc(C)c4c(N)ncnc43)c2OC)C1 (single isomer, unassigned) [Example 290, Ethyl 3-{3-[1-(4-amino-3-methyl-1H-pyrazolo[3,4-d]pyrimidin-1-yl)ethyl]-5-chloro-6-cyano-2-methoxyphenyl}azetidine-1-carboxylate] | ≥ 8.00
CCOc1c(C(C)n2nc(C)c3c(N)ncnc32)cc(Cl)c(C#N)c1-c1cncc(C(=O)N(C)C)c1 (single isomer, unassigned) [Example 331, 5-{3-[1-(4-amino-3-methyl-1H-pyrazolo[3,4-d]pyrimidin-1-yl)ethyl]-5-chloro-6-cyano-2-ethoxyphenyl}-N,N-dimethylnicotinamide] | ≥ 8.00
CCOc1c(C(C)n2nc(C)c3c(N)ncnc32)cc(Cl)c(C#N)c1C1CN(CC)C1 (stereo not drawn) [Example 214, 4-[1-(4-Amino-3-methyl-1H-pyrazolo[3,4-d]pyrimidin-1-yl)ethyl]-6-chloro-3-ethoxy-2-(1-ethylazetidin-3-yl)benzonitrile] | ≥ 8.00
CNC(=O)c1ccc(-c2c(C)c(Cl)cc(C(C)n3ccc(=O)c4c(N)ncnc43)c2OC)cn1 (racemic) [Example 33, 5-{3-[1-(4-amino-5-oxopyrido[2,3-d]pyrimidin-8(5H)-yl)ethyl]-5-chloro-2-methoxy-6-methylphenyl}-N-methylpyridine-2-carboxamide bis(trifluoroacetate)] | ≥ 8.00
2-(4-(3-(1-(4-Amino-3-methyl-1H-pyrazolo[3,4-d]pyrimidin-1-yl)ethyl)-5-chloro-2-ethoxy-6-methylphenyl)-1H-pyrazol-1-yl) acetamide [Example 203] | ≥ 8.00
COc1c(C(C)n2nc(C)c3c(N)ncnc32)cc(Cl)c(C)c1CCC(=O)N(C)C (single isomer, unassigned) [Example 180, 3-(3-(1-(4-Amino-3-methyl-1H-pyrazolo[3,4-d]pyrimidin-1-yl)ethyl)-5-chloro-2-methoxy-6-methylphenyl)-N,N-dimethylpropanamide] | ≥ 8.00
CCOc1c(C(C)n2nc(-c3cccnc3)c3c(N)ncnc32)cc(Cl)c(C)c1-c1ccc(C(=O)N(C)C)nc1 (racemic) [Example 61, 5-{3-[1-(4-amino-3-pyridin-3-yl-1H-pyrazolo[3,4-d]pyrimidin-1-yl)ethyl]-5-chloro-2-ethoxy-6-methylphenyl}-N,N-dimethylpyridine-2-carboxamide tris(trifluoroacetate)] | ≥ 8.00
COc1c(C(C)n2nc(C)c3c(N)ncnc32)cc(Cl)c(F)c1C1CN(C[C@H](C)O)C1 (single isomer, unassigned) [68 (1st peak)] | ≥ 8.00
CCOc1c(C(C)n2nc(C)c3c(N)ncnc32)cc(Cl)c(C)c1C1CNC(=O)C1 (single isomer, unassigned) [Example 310, 4-{3-[1-(4-amino-3-methyl-1H-pyrazolo[3,4-d]pyrimidin-1-yl)ethyl]-5-chloro-2-ethoxy-6-methylphenyl}pyrrolidin-2-one] | ≥ 8.00
CCOc1c(C(C)n2nc(C)c3c(N)ncnc32)cc(C#N)c(C)c1-c1cnn(C)c1 (single isomer, unassigned) [Example 210, 5-[1-(4-Amino-3-methyl-1H-pyrazolo[3,4-d]pyrimidin-1-yl)ethyl]-4-ethoxy-2-methyl-3-(1-methyl-1H-pyrazol-4-yl)benzonitrile] | ≥ 8.00
CNC(=O)c1ccc(-c2c(C)c(Cl)cc(C(C)n3nc(C)c4c(N)ncnc43)c2OC)cn1 (single isomer, unassigned) [Example 173, 5-(3-(1-(4-amino-3-methyl-1H-pyrazolo[3,4-d]pyrimidin-1-yl)ethyl)-5-chloro-2-methoxy-6-methylphenyl)-N-methylpicolinamide] | ≥ 8.00
COc1c(C(C)n2nc(C)c3c(N)ncnc32)cc(Cl)c(C)c1C1CNC(=O)CO1 (single isomer, unassigned) [324 (1st peak), 6-{3-[1-(4-Amino-3-methyl-1H-pyrazolo[3,4-d]pyrimidin-1-yl)ethyl]-5-chloro-2-methoxy-6-methylphenyl}morpholin-3-one] | 6.70 to 7.30
CCOc1c(C(C)n2nc(C)c3c(N)ncnc32)cc(Cl)c(C#N)c1C1CNC(=O)C1 (single isomer, unassigned) [Example 351, 4-[1-(4-amino-3-methyl-1H-pyrazolo[3,4-d]pyrimidin-1-yl)ethyl]-6-chloro-3-ethoxy-2-(5-oxopyrrolidin-3-yl)benzonitrile] | 6.70 to 7.30
COc1c(C(C)n2nc(C)c3c(N)ncnc32)cc(C#N)c(C)c1-c1cnn(C)c1 (single isomer, unassigned) [Example 209, 5-[1-(4-Amino-3-methyl-1H-pyrazolo[3,4-d]pyrimidin-1-yl)ethyl]-4-methoxy-2-methyl-3-(1-methyl-1H-pyrazol-4-yl)benzonitrile] | 7.30 to 8.00
COc1c(C(C)n2nc(C)c3c(N)ncnc32)cc(Cl)c(C)c1C1CN(C(=O)[C@@H](C)O)C1 (stereo partly drawn) [Example 121, (2R)-1-(3-{3-[1-(4-Amino-3-methyl-1H-pyrazolo[3,4-d]pyrimidin-1-yl)ethyl]-5-chloro-2-methoxy-6-methylphenyl}azetidin-1-yl)-1-oxopropan-2-ol trifluoroacetate] | ≥ 8.00
CCOc1c(C(C)n2nc(C)c3c(N)ncnc32)cc(Cl)c(C)c1-c1cncc(C(=O)N(C)C)c1 (stereo not drawn) [Example 196, 5-(3-(1-(4-amino-3-methyl-1H-pyrazolo[3,4-d]pyrimidin-1-yl)ethyl)-5-chloro-2-ethoxy-6-methylphenyl)-N,N-dimethylnicotinamide] | ≥ 8.00
CCOc1c(C(C)n2nc(C)c3c(N)ncnc32)cc(Cl)c(C#N)c1C1CNC(=O)O1 (single isomer, unassigned) [323 (4th peak), 4-[1-(4-amino-3-methyl-1H-pyrazolo[3,4-d]pyrimidin-1-yl)ethyl]-6-chloro-3-ethoxy-2-(2-oxo-1,3-oxazolidin-5-yl)benzonitrile] | ≥ 8.00
COc1c(C(C)n2nc(C)c3c(N)ncnc32)cc(Cl)c(Cl)c1C1CN(C(C)=O)C1 (single isomer, unassigned) [Example 306, 1-{1-[3-(1-Acetylazetidin-3-yl)-4,5-dichloro-2-methoxyphenyl]ethyl}-3-methyl-1H-pyrazolo[3,4-d]pyrimidin-4-amine] | ≥ 8.00
COc1c(C(C)n2nc(C)c3c(N)ncnc32)cc(Cl)c(C)c1-c1cncc(C(=O)N2CCC(O)CC2)c1 (single isomer, unassigned) [Example 176, 1-[(5-{3-[1-(4-amino-3-methyl-1H-pyrazolo[3,4-d]pyrimidin-1-yl)ethyl]-5-chloro-2-methoxy-6-methylphenyl}pyridin-3-yl)carbonyl]piperidin-4-ol] | ≥ 8.00
COc1c(C(C)n2nc(C)c3c(N)ncnc32)cc(Cl)c(C)c1C1CN(C(=O)C2(O)CC2)C1 (single isomer, unassigned) [Example 122, 1-[(3-{3-[1-(4-Amino-3-methyl-1H-pyrazolo[3,4-d]pyrimidin-1-yl)ethyl]-5-chloro-2-methoxy-6-methylphenyl}azetidin-1-yl)carbonyl]cyclopropanol] | ≥ 8.00
CCOc1c(C(C)n2nc(-c3ccncc3)c3c(N)ncnc32)cc(Cl)c(C)c1-c1ccc(C(=O)N(C)C)nc1 (racemic) [Example 60, 5-{3-[1-(4-amino-3-pyridin-4-yl-1H-pyrazolo[3,4-d]pyrimidin-1-yl)ethyl]-5-chloro-2-ethoxy-6-methylphenyl}-N,N-dimethylpyridine-2-carboxamide tris(trifluoroacetate)] | ≥ 8.00
CCOc1c(C(C)n2nc(-c3ccc(F)cc3)c3c(N)ncnc32)cc(Cl)c(C)c1-c1ccc(C(=O)N(C)C)nc1 (racemic) [Example 55, 5-(3-{1-[4-amino-3-(4-fluorophenyl)-1H-pyrazolo[3,4-d]pyrimidin-1-yl]ethyl}-5-chloro-2-ethoxy-6-methylphenyl)-N,N-dimethylpyridine-2-carboxamide bis(trifluoroacetate)] | 7.30 to 8.00
CCOc1c(C(C)n2nc(C)c3c(N)ncnc32)cc(Cl)c(F)c1C1CNC(=O)C1 (single isomer, unassigned) [Example 346, 4-{3-[1-(4-amino-3-methyl-1H-pyrazolo[3,4-d]pyrimidin-1-yl)ethyl]-5-chloro-2-ethoxy-6-fluorophenyl}pyrrolidin-2-one] | ≥ 8.00
CCOc1c(C(C)n2nc(C)c3c(N)ncnc32)cc(C)c(C#N)c1-c1ccc(C(=O)N(C)C)nc1 (single isomer, unassigned) [314 (2nd peak), 5-{3-[1-(4-amino-3-methyl-1H-pyrazolo[3,4-d]pyrimidin-1-yl)ethyl]-6-cyano-2-ethoxy-5-methylphenyl}-N,N-dimethylpyridine-2-carboxamide] | ≥ 8.00
COc1c(C(C)n2nc(C)c3c(N)ncnc32)cc(Cl)c(C)c1C1CN(CC2CC2)C1 (racemic) [Example 4, 1-(1-{5-Chloro-3-[1-(cyclopropylmethyl)azetidin-3-yl]-2-methoxy-4-methylphenyl}ethyl)-3-methyl-1H-pyrazolo[3,4-d]pyrimidin-4-amine bis(trifluoroacetate)] | ≥ 8.00
CCOc1c(C(C)n2nc(C(F)F)c3c(N)ncnc32)cc(Cl)c(F)c1C1CN(C(C)C)C1 (racemic) [Example 150, 1-{1-[5-Chloro-2-ethoxy-4-fluoro-3-(1-isopropylazetidin-3-yl)phenyl]ethyl}-3-(difluoromethyl)-1H-pyrazolo[3,4-d]pyrimidin-4-amine] | ≥ 8.00
CCOc1c(C(C)n2nc(C)c3c(N)ncnc32)cc(C)c(C#N)c1-c1cncc(S(C)(=O)=O)c1 (single isomer, unassigned) [Example 335, 4-[1-(4-amino-3-methyl-1H-pyrazolo[3,4-d]pyrimidin-1-yl)ethyl]-3-ethoxy-6-methyl-2-[5-(methylsulfonyl)pyridin-3-yl]benzonitrile] | ≥ 8.00
